# Measurements from patent US11192890B2, “FGFR kinase inhibitors and pharmaceutical uses” (AUCKLAND UNISERVICES LIMITED, priority 2017, dated 2021).
# Read-outs that look alike come from different tables or passages of the source.
# Columns and labels:
# FGFR3 = target: T1, FGFR3 (Homo sapiens, UniProt P22607); assay: Isolated enzyme FRET-based Z-Lyte kinase inhibition assay; format: biochemical; details: means from 3 independent experiments; read-out: Isolate Enzyme Inhibition IC50, FGFR3
# T1 construct: purchased Invitrogen
# T1 sequence (P22607 23-806): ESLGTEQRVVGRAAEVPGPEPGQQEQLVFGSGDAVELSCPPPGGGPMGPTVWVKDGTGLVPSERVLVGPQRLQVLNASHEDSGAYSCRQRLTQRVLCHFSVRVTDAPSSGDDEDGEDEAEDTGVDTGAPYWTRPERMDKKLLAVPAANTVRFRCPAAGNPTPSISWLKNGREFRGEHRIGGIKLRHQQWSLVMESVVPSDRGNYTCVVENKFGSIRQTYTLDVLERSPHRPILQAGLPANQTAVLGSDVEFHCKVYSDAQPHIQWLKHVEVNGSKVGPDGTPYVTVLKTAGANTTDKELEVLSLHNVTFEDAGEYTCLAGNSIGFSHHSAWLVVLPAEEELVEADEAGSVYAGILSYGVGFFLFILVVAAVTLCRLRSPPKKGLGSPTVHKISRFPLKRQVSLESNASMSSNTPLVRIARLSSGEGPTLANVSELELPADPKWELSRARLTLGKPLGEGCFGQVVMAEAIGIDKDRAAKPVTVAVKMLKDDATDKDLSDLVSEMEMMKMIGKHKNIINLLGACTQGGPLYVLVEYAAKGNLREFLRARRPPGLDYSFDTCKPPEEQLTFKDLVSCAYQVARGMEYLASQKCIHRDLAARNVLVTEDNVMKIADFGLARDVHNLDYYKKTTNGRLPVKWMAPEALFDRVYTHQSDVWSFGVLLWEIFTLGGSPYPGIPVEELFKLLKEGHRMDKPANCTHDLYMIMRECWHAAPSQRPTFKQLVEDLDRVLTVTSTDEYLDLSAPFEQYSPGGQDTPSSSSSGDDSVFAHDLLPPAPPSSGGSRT
# Experimental: (§1) FGFR1-4 and the Z-Lyte Kinase Assay Kit were purchased from Invitrogen. The concentration gradients from 5.1×10^−11 to 1.0×10^−6 mol/L were used for all the test compounds. The experiments were performed according to the instructions of the manufacturer.
# (§2) FGFR1-4 isolated enzyme activity was determined using the FRET-based Z-Lyte kinase inhibition assay. The data are the means from 3 independent experiments.
# FGFR2 = target: T2, FGFR2 (Homo sapiens, UniProt P21802); assay: as above; format: biochemical; details: means from 3 independent experiments; read-out: Isolate Enzyme Inhibition IC50, FGFR2
# T2 construct: purchased Invitrogen
# T2 sequence (P21802 22-821): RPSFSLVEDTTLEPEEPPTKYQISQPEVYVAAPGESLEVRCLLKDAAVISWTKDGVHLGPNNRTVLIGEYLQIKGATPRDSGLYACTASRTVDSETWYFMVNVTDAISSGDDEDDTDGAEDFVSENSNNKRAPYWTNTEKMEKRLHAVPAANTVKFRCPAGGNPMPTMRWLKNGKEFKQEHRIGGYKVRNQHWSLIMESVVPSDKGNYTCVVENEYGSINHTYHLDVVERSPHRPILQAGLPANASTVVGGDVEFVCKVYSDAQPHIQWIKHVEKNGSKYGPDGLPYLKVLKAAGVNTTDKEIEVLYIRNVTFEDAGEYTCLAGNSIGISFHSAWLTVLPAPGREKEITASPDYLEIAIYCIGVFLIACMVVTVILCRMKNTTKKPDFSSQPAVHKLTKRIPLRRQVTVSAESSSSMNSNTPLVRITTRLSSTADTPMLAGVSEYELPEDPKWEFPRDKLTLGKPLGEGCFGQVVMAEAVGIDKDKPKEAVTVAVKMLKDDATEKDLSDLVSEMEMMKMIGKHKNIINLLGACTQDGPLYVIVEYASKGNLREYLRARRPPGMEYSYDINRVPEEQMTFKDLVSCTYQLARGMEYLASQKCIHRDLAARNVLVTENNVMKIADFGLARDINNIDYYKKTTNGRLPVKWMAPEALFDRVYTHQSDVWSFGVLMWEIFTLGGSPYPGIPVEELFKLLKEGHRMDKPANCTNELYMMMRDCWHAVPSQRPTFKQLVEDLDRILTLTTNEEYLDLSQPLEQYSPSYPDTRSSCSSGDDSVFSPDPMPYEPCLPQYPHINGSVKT
# Experimental: as §1, §2
# FGFR1 = target: T3, FGFR1 (Homo sapiens, UniProt P11362); assay: as above; format: biochemical; details: means from 3 independent experiments; read-out: Isolate Enzyme Inhibition IC50, FGFR1
# T3 construct: purchased Invitrogen
# T3 sequence (P11362 22-822): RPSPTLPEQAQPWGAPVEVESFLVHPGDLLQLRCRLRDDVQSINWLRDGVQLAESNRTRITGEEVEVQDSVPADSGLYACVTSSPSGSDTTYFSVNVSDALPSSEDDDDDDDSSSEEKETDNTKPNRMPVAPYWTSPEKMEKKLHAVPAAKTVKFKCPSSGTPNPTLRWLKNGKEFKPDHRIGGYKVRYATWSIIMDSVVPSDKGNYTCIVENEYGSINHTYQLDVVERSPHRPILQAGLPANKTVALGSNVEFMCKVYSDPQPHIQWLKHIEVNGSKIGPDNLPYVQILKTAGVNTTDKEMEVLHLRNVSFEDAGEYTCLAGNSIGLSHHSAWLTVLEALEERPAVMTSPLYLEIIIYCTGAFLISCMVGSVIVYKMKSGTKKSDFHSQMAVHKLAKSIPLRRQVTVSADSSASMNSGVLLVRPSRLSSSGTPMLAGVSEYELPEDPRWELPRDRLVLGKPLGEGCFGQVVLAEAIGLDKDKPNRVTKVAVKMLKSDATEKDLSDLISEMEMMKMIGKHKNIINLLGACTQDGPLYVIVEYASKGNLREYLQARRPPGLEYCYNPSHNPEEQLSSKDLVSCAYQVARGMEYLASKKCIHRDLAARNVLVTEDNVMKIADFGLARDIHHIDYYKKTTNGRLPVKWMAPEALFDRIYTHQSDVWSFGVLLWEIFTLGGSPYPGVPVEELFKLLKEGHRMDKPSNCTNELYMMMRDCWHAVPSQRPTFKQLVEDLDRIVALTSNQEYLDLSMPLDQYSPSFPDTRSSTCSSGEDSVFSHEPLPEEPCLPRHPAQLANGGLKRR
# Experimental: as §1, §2
# SUM52 cells = assay: Oxic and anoxic anti-proliferative activity of the prodrugs; details: for Hypoxic Cytotoxicity Ratio (HCR), SUM52: ratio of oxic and anoxic IC50
# [1] = tested on: FGFR1 in H520 cells (phospho-ERK1/2); assay: Drug washout Western blot assay, H520 cells; format: cell-based; details: H520; 30 min exposure, 100 nM, with and without washout
# [2] = tested on: FGFR3 in SW780 cells (phospho-ERK1/2); assay: Drug washout Western blot assay, SW780 cells; format: cell-based; details: SW780; 30 min exposure, 100 nM, with and without washout
# [3] = read-out: Cellular Anti-proliferative IC50, SUM52, Anoxic, 4 hours of anoxia, remainder of assay oxic
# [4] = read-out: Cellular Anti-proliferative IC50, SUM52, Oxic, oxic conditions
structure (smiles),measurement,setting,value
"CNc1ncc2c(n1)N(C1CCN(C(=O)/C=C/CN3CCCCC3)CC1)C(=O)N(c1c(Cl)c(OC)cc(OC)c1Cl)C2 [Compound 124, (E)-3-(2,6-dichloro-3,5-dimethoxyphenyl)-7-(methylamino)-1-(1-(4-(piperidin-1-yl)but-2-enoyl)piperidin-4-yl)-3,4-dihydropyrimido[4,5-d]pyrimidin-2(1H)-one]",IC50,FGFR3,12 nM
same,IC50,FGFR2,1.9 nM
same,IC50,FGFR1,0.8 nM
"COc1cc(OC)c(Br)c(-c2cc3cnc(Nc4ccccc4)nc3n(C3CCN(C(=O)/C=C/C[N+](C)(C)Cc4c([N+](=O)[O-])ncn4C)CC3)c2=O)c1Br.[Br-] [Compound 212, (E)-4-(4-(6-(2,6-dibromo-3,5-dimethoxyphenyl)-7-oxo-2-(phenylamino)pyrido[2,3-d]pyrimidin-8(7H)-yl)piperidin-1-yl)-N,N-dimethyl-N-((1-methyl-4-nitro-1H-imidazol-5-yl)methyl)-4-oxobut-2-en-1-aminium bromide]","Hypoxic Cytotoxicity Ratio (HCR), SUM52",SUM52 cells,8
same,IC50,SUM52 cells; [3],2 nM
same,IC50,SUM52 cells; [4],13 nM
"COc1cc(OC)c(Br)c(-c2cc3cnc(Nc4ccccc4)nc3n(C3CCN(C(=O)/C=C/CN(C)C)CC3)c2=O)c1Br [Compound 152, (E)-6-(2,6-dibromo-3,5-dimethoxyphenyl)-8-(1-(4-(dimethylamino)but-2-enoyl)piperidin-4-yl)-2-(phenylamino)pyrido[2,3-d]pyrimidin-7(8H)-one]",IC50,FGFR3,2 nM
same,IC50,FGFR2,1.1 nM
same,IC50,FGFR1,0.7 nM
same,reversible or irreversible inhibition of FGFR1 in cells,[1],potent irreversible inhibitors
"COc1cc(OC)c(Cl)c(-c2cc3cnc(NC(C)C)nc3n(Cc3cccc(NC(=O)/C=C/CN(C)C)c3)c2=O)c1Cl [Compound 145, (E)-N-(3-((6-(2,6-dichloro-3,5-dimethoxyphenyl)-2-(isopropylamino)-7-oxopyrido[2,3-d]pyrimidin-8(7H)-yl)methyl)phenyl)-4-(dimethylamino)but-2-enamide]",IC50,FGFR3,6.9 nM
same,IC50,FGFR2,2.5 nM
same,IC50,FGFR1,1.3 nM
"COc1cc(OC)c(Br)c(-c2cc3cnc(NC(C)C)nc3n(C3CCN(C(=O)/C=C/C[N+](C)(C)Cc4c([N+](=O)[O-])ncn4C)CC3)c2=O)c1Br.[Br-] [Compound 210, (E)-4-(4-(6-(2,6-dibromo-3,5-dimethoxyphenyl)-2-(isopropylamino)-7-oxopyrido[2,3-d]pyrimidin-8(7H)-yl)piperidin-1-yl)-N,N-dimethyl-N-((1-methyl-4-nitro-1H-imidazol-5-yl)methyl)-4-oxobut-2-en-1-aminium bromide]","Hypoxic Cytotoxicity Ratio (HCR), SUM52",SUM52 cells,9
same,IC50,SUM52 cells; [3],4 nM
same,IC50,SUM52 cells; [4],35 nM
"COc1cc(Nc2ncc3cc(-c4c(Cl)c(OC)cc(OC)c4Cl)c(=O)n(C4CCN(C(=O)/C=C/CN(C)C)CC4)c3n2)ccc1F [Compound 141, (E)-6-(2,6-dichloro-3,5-dimethoxyphenyl)-8-(1-(4-(dimethylamino)but-2-enoyl)piperidin-4-yl)-2-((4-fluoro-3-methoxyphenyl)amino)pyrido[2,3-d]pyrimidin-7(8H)-one]",IC50,FGFR3,5.5 nM
same,IC50,FGFR2,1.5 nM
same,IC50,FGFR1,0.7 nM
"CNc1ncc2cc(-c3c(Cl)c(OC)cc(OC)c3Cl)c(=O)n(C3CCN(C(=O)/C=C/CN(C)C)CC3)c2n1 [Compound 132, (E)-6-(2,6-dichloro-3,5-dimethoxyphenyl)-8-(1-(4-(dimethylamino)but-2-enoyl)piperidin-4-yl)-2-(methylamino)pyrido[2,3-d]pyrimidin-7(8H)-one]",IC50,FGFR3,4.9 nM
same,IC50,FGFR2,1 nM
same,IC50,FGFR1,0.7 nM
"COc1cc(OC)c(Cl)c(-c2cc3cnc(NC4CCOCC4)nc3n(C3CCN(C(=O)/C=C/CN(C)C)CC3)c2=O)c1Cl [Compound 135, (E)-6-(2,6-dichloro-3,5-dimethoxyphenyl)-8-(1-(4-(dimethylamino)but-2-enoyl)piperidin-4-yl)-2-((tetrahydro-2H-pyran-4-yl)amino)pyrido[2,3-d]pyrimidin-7(8H)-one]",IC50,FGFR3,6.3 nM
same,IC50,FGFR2,1.2 nM
same,IC50,FGFR1,0.9 nM
"COc1ccc(Nc2ncc3c(n2)N(C2CCN(C(=O)/C=C/C[N+](C)(C)Cc4c([N+](=O)[O-])ncn4C)CC2)C(=O)N(c2c(Cl)c(OC)cc(OC)c2Cl)C3)cc1.[Br-] [Compound 206, (E)-4-(4-(3-(2,6-dichloro-3,5-dimethoxyphenyl)-7-((4-methoxyphenyl)amino)-2-oxo-3,4-dihydropyrimido[4,5-d]pyrimidin-1(2H)-yl)piperidin-1-yl)-N,N-dimethyl-N-((1-methyl-4-nitro-1H-imidazol-5-yl)methyl)-4-oxobut-2-en-1-aminium bromide]","Hypoxic Cytotoxicity Ratio (HCR), SUM52",SUM52 cells,8
same,IC50,SUM52 cells; [3],1 nM
same,IC50,SUM52 cells; [4],8 nM
"COc1cc(OC)c(Cl)c(-c2cc3cnc(NC4CCCCC4)nc3n(C3CCN(C(=O)/C=C/CN(C)C)CC3)c2=O)c1Cl [Compound 136, (E)-2-(cyclohexylamino)-6-(2,6-dichloro-3,5-dimethoxyphenyl)-8-(1-(4-(dimethylamino)but-2-enoyl)piperidin-4-yl)pyrido[2,3-d]pyrimidin-7(8H)-one]",IC50,FGFR3,6.7 nM
same,IC50,FGFR2,1.3 nM
same,IC50,FGFR1,1.1 nM
"COc1cc(OC)c(Br)c(N2Cc3cnc(NC(C)C)nc3N(C3CCN(C(=O)/C=C/C[N+](C)(C)Cc4c([N+](=O)[O-])ncn4C)CC3)C2=O)c1Br.[Br-] [Compound 207, (E)-4-(4-(3-(2,6-dibromo-3,5-dimethoxyphenyl)-7-(isopropylamino)-2-oxo-3,4-dihydropyrimido[4,5-d]pyrimidin-1(2H)-yl)piperidin-1-yl)-N,N-dimethyl-N-((1-methyl-4-nitro-1H-imidazol-5-yl)methyl)-4-oxobut-2-en-1-aminium bromide]","Hypoxic Cytotoxicity Ratio (HCR), SUM52",SUM52 cells,53
same,IC50,SUM52 cells; [3],8 nM
same,IC50,SUM52 cells; [4],404 nM
"CNc1ncc2cc(-c3c(Cl)c(OC)cc(OC)c3Cl)c(=O)n(Cc3cccc(NC(=O)/C=C/CN(C)C)c3)c2n1 [Compound 143, (E)-N-(3-((6-(2,6-dichloro-3,5-dimethoxyphenyl)-2-(methylamino)-7-oxopyrido[2,3-d]pyrimidin-8(7H)-yl)methyl)phenyl)-4-(dimethylamino)but-2-enamide]",IC50,FGFR3,8 nM
same,IC50,FGFR2,0.9 nM
same,IC50,FGFR1,0.8 nM
"CNc1ncc2c(n1)N(Cc1cccc(NC(=O)/C=C/CN(C)C)c1)C(=O)N(c1c(Cl)c(OC)cc(OC)c1Cl)C2 [Compound 127, (E)-N-(3-((3-(2,6-dichloro-3,5-dimethoxyphenyl)-7-(methylamino)-2-oxo-3,4-dihydropyrimido[4,5-d]pyrimidin-1(2H)-yl)methyl)phenyl)-4-(dimethylamino)but-2-enamide]",IC50,FGFR3,35 nM
same,IC50,FGFR2,2.7 nM
same,IC50,FGFR1,1 nM
"COc1cc(OC)c(Cl)c(-c2cc3cnc(NC4CCOC4)nc3n(C3CCN(C(=O)/C=C/CN(C)C)CC3)c2=O)c1Cl (centres unmarked) [Compound 134, (E)-6-(2,6-dichloro-3,5-dimethoxyphenyl)-8-(1-(4-(dimethylamino)but-2-enoyl)piperidin-4-yl)-2-((tetrahydrofuran-3-yl)amino)pyrido[2,3-d]pyrimidin-7(8H)-one]",IC50,FGFR3,11 nM
same,IC50,FGFR2,1.6 nM
same,IC50,FGFR1,1.1 nM
"COc1cccc(Nc2ncc3cc(-c4c(Cl)c(OC)cc(OC)c4Cl)c(=O)n(C4CCN(C(=O)/C=C/CN(C)C)CC4)c3n2)c1 [Compound 140, (E)-6-(2,6-dichloro-3,5-dimethoxyphenyl)-8-(1-(4-(dimethylamino)but-2-enoyl)piperidin-4-yl)-2-((3-methoxyphenyl)amino)pyrido[2,3-d]pyrimidin-7(8H)-one]",IC50,FGFR3,4.9 nM
same,IC50,FGFR2,0.9 nM
same,IC50,FGFR1,0.7 nM
"CNc1ncc2cc(-c3c(Cl)c(OC)cc(OC)c3Cl)c(=O)n(C(C)c3cccc(NC(=O)/C=C/CN(C)C)c3)c2n1 (centres unmarked) [Compound 146, (E)-N-(3-(1-(6-(2,6-dichloro-3,5-dimethoxyphenyl)-2-(methylamino)-7-oxopyrido[2,3-d]pyrimidin-8(7H)-yl)ethyl)phenyl)-4-(dimethylamino)but-2-enamide]",IC50,FGFR3,6.2 nM
same,IC50,FGFR2,1.2 nM
same,IC50,FGFR1,1.2 nM
"CCNc1ncc2cc(-c3c(Cl)c(OC)cc(OC)c3Cl)c(=O)n(Cc3cccc(NC(=O)/C=C/CN(C)C)c3)c2n1 [Compound 144, (E)-N-(3-((6-(2,6-dichloro-3,5-dimethoxyphenyl)-2-(ethylamino)-7-oxopyrido[2,3-d]pyrimidin-8(7H)-yl)methyl)phenyl)-4-(dimethylamino)but-2-enamide]",IC50,FGFR3,6.7 nM
same,IC50,FGFR2,1.6 nM
same,IC50,FGFR1,0.9 nM
"COc1cc(OC)c(Cl)c(-c2cc3cnc(Nc4ccc(F)cc4)nc3n(C3CCN(C(=O)/C=C/CN(C)C)CC3)c2=O)c1Cl [Compound 139, (E)-6-(2,6-dichloro-3,5-dimethoxyphenyl)-8-(1-(4-(dimethylamino)but-2-enoyl)piperidin-4-yl)-2-((4-fluorophenyl)amino)pyrido[2,3-d]pyrimidin-7(8H)-one]",IC50,FGFR3,6 nM
same,IC50,FGFR2,1.1 nM
same,IC50,FGFR1,0.3 nM
"C=CC(=O)N1CCC(N2C(=O)N(c3c(Cl)c(OC)cc(OC)c3Cl)Cc3cnc(NC)nc32)CC1 [Compound 156, 1-(1-acryloylpiperidin-4-yl)-3-(2,6-dichloro-3,5-dimethoxyphenyl)-7-(methylamino)-3,4-dihydropyrimido[4,5-d]pyrimidin-2(1H)-one]",reversible or irreversible inhibition of FGFR3 in cells,[2],potent reversible inhibitors
